Assay results from ChEMBL document CHEMBL6074662, “Antibacterial, Antibiofilm, and Anti-inflammatory Effects of a Novel Thrombin-Derived Peptide in Sepsis Models: Insights into Underlying Mechanisms” (J Med Chem, 2024).
Active and inactive are the calls of the source. The rule behind the calls is not given here.

What was measured:
[1] = tested on: Pseudomonas aeruginosa; test: Bactericidal activity against multidrug-resistant Pseudomonas aeruginosa CCARM 2095 at 0.5 to 2 uM incubated for 12 hrs by time-kill assay; format: functional, organism-based; conditions: dose 0.5-2 µM
[2] = tested on: Mus musculus; test: Antiseptic activity in sepsis shock ICR mouse model infected with carbapenem-resistant Acinetobacter baumannii assessed as decrease in IL-1beta level in serum at 1 mg/kg, ip pretreated with compound for 1 hr followed by bacterial infection measured after 16 hrs relative to control; format: functional; design: scale not given: the % may be the effect or the level left; conditions: time 17 hrs
[3] = tested on: Mus musculus; test: Antiseptic activity in sepsis shock ICR mouse model infected with carbapenem-resistant Acinetobacter baumannii assessed as decrease in TNF-alpha level in serum at 1 mg/kg, ip pretreated with compound for 1 hr followed by bacterial infection measured after 16 hrs relative to control; format: functional; design: scale not given: the % may be the effect or the level left; conditions: time 17 hrs
[4] = tested on: Mus musculus; test: Antiseptic activity in sepsis shock ICR mouse model infected with carbapenem-resistant Acinetobacter baumannii assessed as reduction in bacterial count in lungs at 1 mg/kg, ip pre-infected with bacteria followed by compound administration 1 hr post-infection measured after 16 hrs relative to control; format: functional; design: scale not given: the % may be the effect or the level left
[5] = target: T1, Toll-like receptor 4 (Mus musculus) (UniProt Q9QUK6); test: Inhibition of LPS-induced TLR4 activation in mouse RAW264.7 cells assessed as decrease in JNK phosphorylation at 2 uM pretreated for 1 hr followed by LPS treatment for 30 mins by Western blot analysis relative to control; format: cell-based; conditions: time 90.0 min
T1 sequence (whole entry): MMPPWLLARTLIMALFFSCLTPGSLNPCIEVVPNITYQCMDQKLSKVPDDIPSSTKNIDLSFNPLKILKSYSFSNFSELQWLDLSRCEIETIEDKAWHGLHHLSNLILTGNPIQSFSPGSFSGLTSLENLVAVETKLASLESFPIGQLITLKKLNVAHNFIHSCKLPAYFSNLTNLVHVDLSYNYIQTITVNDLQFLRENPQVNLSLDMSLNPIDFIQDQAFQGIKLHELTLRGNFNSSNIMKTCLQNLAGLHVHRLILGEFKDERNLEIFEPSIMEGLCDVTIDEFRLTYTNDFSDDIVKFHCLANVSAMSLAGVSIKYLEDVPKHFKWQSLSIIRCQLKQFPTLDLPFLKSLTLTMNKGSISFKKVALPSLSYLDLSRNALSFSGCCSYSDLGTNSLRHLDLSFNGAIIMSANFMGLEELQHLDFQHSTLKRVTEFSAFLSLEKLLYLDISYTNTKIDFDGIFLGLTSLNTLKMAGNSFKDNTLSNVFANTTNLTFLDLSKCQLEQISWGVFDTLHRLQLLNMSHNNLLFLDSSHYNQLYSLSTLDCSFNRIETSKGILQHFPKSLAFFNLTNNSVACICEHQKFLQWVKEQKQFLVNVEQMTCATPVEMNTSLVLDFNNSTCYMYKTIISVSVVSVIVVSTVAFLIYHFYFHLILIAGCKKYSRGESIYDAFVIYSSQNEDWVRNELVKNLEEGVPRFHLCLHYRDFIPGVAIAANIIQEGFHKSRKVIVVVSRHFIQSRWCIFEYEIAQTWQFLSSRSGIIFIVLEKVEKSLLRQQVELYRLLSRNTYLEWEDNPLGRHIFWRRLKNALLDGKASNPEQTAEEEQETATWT

[6] = target: Toll-like receptor 4 (Homo sapiens) (UniProt O00206); test: Inhibition of LPS-induced human TLR4 activation expressed in HEK-Blue hTLR4 cells assessed as decrease in SEAP activity at 12.5 uM pretreated for 1 hr followed by LPS treatment for 16 hrs by absorbance based assay relative to control; format: cell-based; conditions: time 17.0 hrs
Chain of Toll-like receptor 4 (Homo sapiens) (O00206 whole entry): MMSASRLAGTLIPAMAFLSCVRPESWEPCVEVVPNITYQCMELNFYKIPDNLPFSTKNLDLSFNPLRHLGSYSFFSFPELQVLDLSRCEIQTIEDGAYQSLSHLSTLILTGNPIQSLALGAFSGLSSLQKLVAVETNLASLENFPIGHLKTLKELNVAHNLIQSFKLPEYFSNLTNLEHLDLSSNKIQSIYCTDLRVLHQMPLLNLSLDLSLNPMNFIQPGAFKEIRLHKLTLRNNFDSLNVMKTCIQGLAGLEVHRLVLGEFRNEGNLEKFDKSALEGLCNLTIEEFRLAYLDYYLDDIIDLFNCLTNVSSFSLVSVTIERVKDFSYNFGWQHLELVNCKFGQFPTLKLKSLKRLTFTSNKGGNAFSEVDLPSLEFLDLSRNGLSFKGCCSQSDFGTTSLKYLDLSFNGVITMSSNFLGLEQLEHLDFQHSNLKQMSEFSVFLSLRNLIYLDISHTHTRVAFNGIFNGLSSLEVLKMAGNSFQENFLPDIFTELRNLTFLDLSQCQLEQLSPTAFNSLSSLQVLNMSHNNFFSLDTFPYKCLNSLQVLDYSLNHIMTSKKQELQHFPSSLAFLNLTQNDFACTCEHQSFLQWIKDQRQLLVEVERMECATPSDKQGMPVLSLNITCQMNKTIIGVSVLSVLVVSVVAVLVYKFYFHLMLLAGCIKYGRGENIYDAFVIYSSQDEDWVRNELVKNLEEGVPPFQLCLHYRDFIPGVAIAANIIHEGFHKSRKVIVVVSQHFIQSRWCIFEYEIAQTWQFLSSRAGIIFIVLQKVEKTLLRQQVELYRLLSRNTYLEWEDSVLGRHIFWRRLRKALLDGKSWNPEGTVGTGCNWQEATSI

[7] = species on record: Homo sapiens; test: Binding affinity to CM5 chip-immobilized TLR4/MD2 (unknown origin) complex by SPR analysis
[8] = tested on: RAW264.7; test: Inhibition of cell binding activity of FITC-labeled LPS to surface receptors of mouse RAW264.7 cells at 8 uM incubated for 1 hr by flow cytometry; format: cell-based
[9] = tested on: Acinetobacter baumannii; test: Antibacterial activity against carbapenem-resistant Acinetobacter baumannii-induced sepsis shock in ICR mouse model assessed as bacterial growth inhibition in kidney at 1 mg/kg, ip pretreated with compound for 1 hr followed by bacterial infection measured after 16 hrs relative to control; format: functional; conditions: time 17 hrs
[10] = tested on: Mus musculus; test: Antiseptic activity in sepsis shock ICR mouse model infected with carbapenem-resistant Acinetobacter baumannii assessed as reduction in bacterial count in kidney at 1 mg/kg, ip pretreated with compound for 3 hrs followed by bacterial infection measured after 16 hrs relative to control; format: functional; design: scale not given: the % may be the effect or the level left; conditions: time 19 hrs
[11] = tested on: Pseudomonas aeruginosa; test: Synergistic bactericidal activity against multidrug-resistant Pseudomonas aeruginosa CCARM 2095 at 0.5 to 2 uM incubated for 12 hrs in presence of oxacillin by time-kill assay; format: functional, organism-based; conditions: dose 0.5-2 µM
[12] = tested on: Mus musculus; test: Antiseptic activity in sepsis shock ICR mouse model infected with carbapenem-resistant Acinetobacter baumannii assessed as reduction in bacterial count in lungs at 1 mg/kg, ip pretreated with compound for 3 hrs followed by bacterial infection measured after 16 hrs relative to control; format: functional; design: scale not given: the % may be the effect or the level left; conditions: time 19 hrs
[13] = tested on: Acinetobacter baumannii; test: Antibacterial activity against carbapenem-resistant Acinetobacter baumannii 1707 incubated for 24 hrs by CLSI based broth microdilution method; format: functional, organism-based
[14] = tested on: Mus musculus; test: Antiseptic activity in sepsis shock ICR mouse model infected with carbapenem-resistant Acinetobacter baumannii assessed as decrease in IL-6 level in serum at 1 mg/kg, ip pretreated with compound for 1 hr followed by bacterial infection measured after 16 hrs relative to control; format: functional; design: scale not given: the % may be the effect or the level left; conditions: time 17 hrs
[15] = Effect on secondary structure of drug in LPS assessed as formation of left-handed alpha-helical conformation at 150 uM by CD analysis; format: physicochemical
[16] = tested on: Lipopolysaccharide (LPS); test: Displacement of BODIPY-TR-cadaverine from Escherichia coli 0111:B4 LPS at 8 uM incubated for 30 mins by fluorescence based assay relative to control
[17] = tested on: Lipopolysaccharide (LPS); test: Displacement of BODIPY-TR-cadaverine from cell-free LPS (unknown origin) incubated for 30 mins by fluorescence based assay; conditions: dose <= 32.0 µM
[18] = tested on: Lipopolysaccharide (LPS); test: Displacement of BODIPY-TR-cadaverine from cell-free LPS (unknown origin) at 8 uM incubated for 30 mins by fluorescence based assay relative to control
[19] = tested on: Escherichia coli; test: Antibacterial activity against Escherichia coli KCTC 1682 assessed as zone of clearance incubated for 4 hrs in presence of pepsin by radical diffusion assay; format: functional, organism-based
[20] = tested on: Escherichia coli; test: Antibacterial activity against Escherichia coli KCTC 1682 assessed as zone of clearance incubated for 4 hrs in presence of alpha-chymotrypsin by radical diffusion assay; format: functional, organism-based
[21] = tested on: Staphylococcus aureus; test: Bactericidal activity against methicillin-resistant Staphylococcus aureus CCARM 3089 at 0.5 to 2 uM incubated for 12 hrs by time-kill assay; format: functional, organism-based; conditions: dose 0.5-2 µM
[22] = tested on: Escherichia coli; test: Antibacterial activity against Escherichia coli KCTC 1682 assessed as zone of clearance incubated for 4 hrs in presence of proteinase K by radical diffusion assay; format: functional, organism-based

H-GVFRLKKWLKKVKKWGK-NH2
Activity [1]: inactive
Activity [2]: 68.7%
Activity [3]: 49.4%
Activity [4]: 92.3%
inhibition [5]: 52%
inhibition [6]: 92.1%
Activity [7]: 9.4 10^-7M
inhibition [8]: Active; Activity Comparable To Ll-37 And Pmb
inhibition in vivo at 1 mg/kg [9]: 88.1%
Activity [10]: 98.5%
Activity [11]: Active
Activity [12]: 98%
Activity [13]: Active
Activity [14]: 86.3%
Activity [15]: Active
Activity [16]: 38%
Activity [17]: Dose-dependent-effect; Activity Similar To Ll-37
Activity [18]: 56%

H-GVFRLKKWIKKVIKKWGK-NH2
Activity [19]: inactive
Activity [20]: inactive
Activity [21]: inactive
Activity [22]: inactive
